In US20250002493A1, “PYRIDONE COMPOUND AND PREPARATION METHOD THEREFOR, PHARMACEUTICAL COMPOSITION AND USE” (NANJING CHINA-AUSTRALIA INSTITUTE OF TRANSLATIONAL MEDICINE …, priority 2022, published 2025):

Columns and labels:
[1] = biological target: BIR3 domain of human cIAP1 (residues 255-364) (Homo sapiens (Human), UniProt Q13490); assay: Fluorescence polarization competitive binding to cIAP1 BIR3; settings: FP, peptide probe 5 nM, cIAP1 BIR3 5 nM, 1 hour room temperature
Description: (§1) The binding affinity of the compounds provided by the present invention to IAP proteins was determined using a fluorescence polarization method (Nikolovska-Colesak et al, Anal. Biochem. 2004, 332:261-73). The recombinant BIR3 domains of human XIAP (residues 238-358), human cIAP1 (residues 255-364) and human cIAP2 (residues 236-342) fusing GST-tags were expressed in E. coli and purified using glutathione agarose 4B affinity chromatography and gel filtration chromatography. A 5-Fam fluorescently modified peptide probe (AbuRPFK(5-Fam)-NH2) was used to test the competitive binding ability of the compounds to the BIR3 domains of XIAP, cIAP1 and cIAP2. The peptide probe (5 nM), XIAP BIR3 (30 nM) or cIAP1 BIR3 (5 nM) or cIAP2 BIR3 (10 nM), and serial diluted compounds were mixed in a test buffer (100 mM potassium phosphate pH 7.5, 100 μg/ml bovine gamma globulin, 0.02% sodium azide, and 1 mM DTT). After incubating the samples at room temperature for 1 hour, the fluorescence polarization values were read using a Tecan microplate reader (FP excitation wavelength 485 nm, […] wavelength 530 nm). The IC50 value was obtained by fitting the curve using nonlinear least square regression with the Graphpad Prism software. The inhibition constant Ki, values were calculated using the Equation Ki, [I]50/([L]50/Kd+[P]0/Kd+1).

[2] = biological target: BIR3 domain of human cIAP2 (residues 236-342) (Homo sapiens (Human), UniProt Q13489); assay: Fluorescence polarization competitive binding to cIAP2 BIR3; settings: FP, peptide probe 5 nM, cIAP2 BIR3 10 nM, 1 hour room temperature
Chain of BIR3 domain of human cIAP2 (residues 236-342) (Q13489 236-342): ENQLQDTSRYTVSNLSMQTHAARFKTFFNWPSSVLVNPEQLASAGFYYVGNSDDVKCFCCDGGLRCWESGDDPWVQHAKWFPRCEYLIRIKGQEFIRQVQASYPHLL
Description: as §1

[3] = biological target: BIR3 domain of human XIAP (residues 238-358) (Homo sapiens (Human), UniProt P98170); assay: Fluorescence polarization competitive binding to XIAP BIR3; settings: FP, peptide probe 5 nM, XIAP BIR3 30 nM, 1 hour room temperature
Chain of BIR3 domain of human XIAP (residues 238-358) (P98170 238-358): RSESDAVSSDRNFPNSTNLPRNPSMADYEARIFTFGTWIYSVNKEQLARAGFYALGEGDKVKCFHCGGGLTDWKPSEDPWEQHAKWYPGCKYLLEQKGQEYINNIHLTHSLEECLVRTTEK
Description: as §1

[4] = test system: MDA-MB-231 human breast cancer cells; assay: WST-8 cell proliferation assay, MDA-MB-231; type: cell-based; settings: 72 hours
Description: (§2) The effects of the compounds provided by the present invention on the proliferation of different cancer cell lines were tested using the WST-8 assay kit. This method is based on the reduction of WST-8 by dehydrogenase in live cells to form a highly water-soluble yellow Formazan dye. Cells were seeded in a 96-well plate and cultured with the test compounds at 37° C. under 5% CO2 for 72 hours. Afterwards, 10% (v/v) WST-8 was added, and the samples were incubated for an additional 2-3 hours. The absorbance of the samples was measured at 450 nm using a Tecan microplate reader, and the concentration of the compound that inhibited 50% of cell proliferation (IC50, nM) was calculated. The activity of the compounds provided by the present invention was determined in three cancer cell lines: MDA-MB-231 human breast cancer cells, SK-OV-3 human ovarian cancer cells, and PANC1 human pancreatic cancer.

[5] = test system: SK-OV-3 human ovarian cancer cells; assay: WST-8 cell proliferation assay, SK-OV-3; type: cell-based; settings: 72 hours, read-out: SKOV-3 IC50
Description: as §2

[6] = test system: PANC1 human pancreatic cancer; assay: WST-8 cell proliferation assay, PANC1; type: cell-based; settings: PANC-1, 72 hours
Description: as §2

MDA-MB-231 cancer cells = assay: Inhibitor-induced apoptosis, flow cytometry with Annexin V and propidium iodide; type: cell-based, human; settings: 3 hours
Description: After treating the cells with 10 nM and 100 nM concentrations of the compounds for 3 hours, the induction of apoptosis was analyzed using flow cytometry with Annexin V and propidium iodide staining.

Chain of BIR3 domain of human cIAP1 (residues 255-364) (Q13490 255-364): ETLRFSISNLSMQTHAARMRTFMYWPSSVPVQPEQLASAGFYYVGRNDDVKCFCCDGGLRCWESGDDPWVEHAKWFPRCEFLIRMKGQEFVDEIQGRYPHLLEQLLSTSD

SMILES: CN[C@@H](C)C(=O)N[C@H](C(=O)N1CCc2c1cc(Cc1ccc(F)cc1)c(=O)n2C)C(C)(C)C [Compound I-3-2]
- Ki [1]: 1.2 nM
- Ki [2]: 2.2 nM
- Ki [3]: 18.4 nM
- IC50 [4]: 2 nM
- IC50 [5]: 2 nM
- IC50 [6]: 43 nM
- Proportion of apoptotic cells (MDA-MB-231 cancer cells; Drug concentration 10 nM): 38%
- Proportion of apoptotic cells (MDA-MB-231 cancer cells; Drug concentration 100 nM): 52%
